Columns and labels:
Test in all cases: cells
Conditions in all cases: Homo sapiens
TGBC24TKB = type: functional, cell-based;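 further: growth inhibition of human TGBC24TKB cells, read out with a cell viability assay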
Description: SANGER: Inhibition of human TGBC24TKB cell growth in a cell viability assay.

COLO-829 = type: functional, cell-based
Description: SANGER: Inhibition of human COLO-829 cell growth in a cell viability assay.

NCI-H1581 = type: functional, cell-based;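 further: cell growth inhibition read out by a viability assay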
Description: SANGER: Inhibition of human NCI-H1581 cell growth in a cell viability assay.

IST-SL1 = type: functional, cell-based;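 further: growth inhibition of human IST-SL1 cells, read out with a cell viability assay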
Description: SANGER: Inhibition of human IST-SL1 cell growth in a cell viability assay.

EW-18 = type: functional, cell-based;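 further: growth inhibition of EW-18 cells, read out by a cell viability assay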
Description: SANGER: Inhibition of human EW-18 cell growth in a cell viability assay.

A204 = type: functional, cell-based;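 further: growth inhibition of human A204 cells, read out with a cell viability assay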
Description: SANGER: Inhibition of human A204 cell growth in a cell viability assay.

NCI-H1395 = type: functional, cell-based;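 further: cell viability assay read-out quantifying reduced proliferation of human NCI-H1395 cells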
Description: SANGER: Inhibition of human NCI-H1395 cell growth in a cell viability assay.

JAR = type: functional, cell-based;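 further: growth inhibition of human JAR cells determined with a cell viability assay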
Description: SANGER: Inhibition of human JAR cell growth in a cell viability assay.

ALL-PO = type: functional, cell-based;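 further: growth inhibition of ALL-PO cells, read out by a cell viability assay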
Description: SANGER: Inhibition of human ALL-PO cell growth in a cell viability assay.

MEG-01 = type: functional, cell-based;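 further: growth inhibition of MEG-01 cells, read out by a cell viability assay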
Description: SANGER: Inhibition of human MEG-01 cell growth in a cell viability assay.

L-363 = type: functional, cell-based
Description: SANGER: Inhibition of human L-363 cell growth in a cell viability assay.

CW-2 = type: functional, cell-based;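 further: growth inhibition of CW-2 cells, read out by a cell viability assay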
Description: SANGER: Inhibition of human CW-2 cell growth in a cell viability assay.

BCPAP = type: functional, cell-based;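 further: growth inhibition of BCPAP cells, read out in a cell viability assay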
Description: SANGER: Inhibition of human BCPAP cell growth in a cell viability assay.

MOLT-16 = type: functional, cell-based;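 further: growth inhibition of human MOLT-16 cells, read out with a cell viability assay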
Description: SANGER: Inhibition of human MOLT-16 cell growth in a cell viability assay.

A4-Fuk = type: functional, cell-based;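 further: growth inhibition of A4-Fuk cells, read out by a cell viability assay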
Description: SANGER: Inhibition of human A4-Fuk cell growth in a cell viability assay.

HH = type: functional, cell-based
Description: SANGER: Inhibition of human HH cell growth in a cell viability assay.

NCI-H1651 = type: functional, cell-based;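 further: Read-out is a cell viability assay, with IC50 expressing inhibition of NCI-H1651 cell growth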
Description: SANGER: Inhibition of human NCI-H1651 cell growth in a cell viability assay.

BB65-RCC = type: functional, cell-based;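 further: growth inhibition of the cell line, measured with a cell viability assay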
Description: SANGER: Inhibition of human BB65-RCC cell growth in a cell viability assay.

BB49-HNC = type: functional, cell-based;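 further: cell viability assay read-out, reported as inhibition of BB49-HNC cell growth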
Description: SANGER: Inhibition of human BB49-HNC cell growth in a cell viability assay.

LS-411N = type: functional, cell-based
NB13 = type: functional, cell-based;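 further: cell viability readout measuring growth inhibition of human NB13 cells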
Description: SANGER: Inhibition of human NB13 cell growth in a cell viability assay.

NKM-1 = type: functional, cell-based;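 further: growth inhibition of NKM-1 cells, read out with a cell viability assay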
Description: SANGER: Inhibition of human NKM-1 cell growth in a cell viability assay.

MIA PaCa-2 = type: functional, cell-based;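 further: growth inhibition of MIA PaCa-2 cells, read out with a cell viability assay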
Description: SANGER: Inhibition of human MIA-PaCa-2 cell growth in a cell viability assay.

SW982 = type: functional, cell-based;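 further: growth inhibition of SW982 cells, read out with a cell viability assay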
Description: SANGER: Inhibition of human SW982 cell growth in a cell viability assay.

LB2241-RCC = type: functional, cell-based;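 further: cell viability assay measuring how strongly the cultured human renal carcinoma line is prevented from growing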
Description: SANGER: Inhibition of human LB2241-RCC cell growth in a cell viability assay.

COLO-320-HSR = type: functional, cell-based;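 further: growth inhibition of COLO-320-HSR cells, determined with a cell viability assay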
Description: SANGER: Inhibition of human COLO-320-HSR cell growth in a cell viability assay.

NCI-H526 = type: functional, cell-based;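 further: growth inhibition of the human NCI-H526 cell line, measured by a cell viability assay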
Description: SANGER: Inhibition of human NCI-H526 cell growth in a cell viability assay.

GI-ME-N = type: functional, cell-based;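 further: growth inhibition of human GI-ME-N cells, read out with a cell viability assay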
Description: SANGER: Inhibition of human GI-ME-N cell growth in a cell viability assay.

BV-173 = type: functional, cell-based
Description: SANGER: Inhibition of human BV-173 cell growth in a cell viability assay.

ES4 = type: functional, cell-based;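 further: growth inhibition of human ES4 cells, read out by a cell viability assay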
Description: SANGER: Inhibition of human ES4 cell growth in a cell viability assay.

U-266 = type: functional, cell-based
Description: SANGER: Inhibition of human U-266 cell growth in a cell viability assay.

GT3TKB = type: functional, cell-based;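 further: growth inhibition of the cell line, read out with a cell viability assay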
Description: SANGER: Inhibition of human GT3TKB cell growth in a cell viability assay.

LU-134-A = type: functional, cell-based
Description: SANGER: Inhibition of human LU-134-A cell growth in a cell viability assay.

RXF 393 = type: functional, cell-based;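 further: growth inhibition of human RXF 393 cells, read out with a cell viability assay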
Description: SANGER: Inhibition of human RXF393 cell growth in a cell viability assay.

VA-ES-BJ = type: functional, cell-based;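 further: growth inhibition of the VA-ES-BJ cell line, read out by a cell viability assay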
Description: SANGER: Inhibition of human VA-ES-BJ cell growth in a cell viability assay.

P30-OHK = type: functional, cell-based;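 further: growth inhibition of the P30-OHK cell line, read out with a cell viability assay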
Description: SANGER: Inhibition of human P30-OHK cell growth in a cell viability assay.

HL-60 = type: functional, cell-based;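 further: growth inhibition of human HL-60 cells, read out with a cell viability assay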
Description: SANGER: Inhibition of human HL-60 cell growth in a cell viability assay.

DEL = type: functional, cell-based;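 further: growth inhibition of the human DEL cell line, read out with a cell viability assay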
Description: SANGER: Inhibition of human DEL cell growth in a cell viability assay.

MOLT-4 = type: functional, cell-based;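 further: growth inhibition of MOLT-4 cells, determined with a cell viability readout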
Description: SANGER: Inhibition of human MOLT-4 cell growth in a cell viability assay.

NCI-H720 = type: functional, cell-based;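 further: growth inhibition of human NCI-H720 cells determined by a cell viability assay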
Description: SANGER: Inhibition of human NCI-H720 cell growth in a cell viability assay.

LB831-BLC = type: functional, cell-based;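 further: growth inhibition of LB831-BLC cells, read out with a cell viability assay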
Description: SANGER: Inhibition of human LB831-BLC cell growth in a cell viability assay.

EM-2 = type: functional, cell-based;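 further: growth inhibition of EM-2 cells, read out with a cell viability assay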
Description: SANGER: Inhibition of human EM-2 cell growth in a cell viability assay.

NCI-H2126 = type: functional, cell-based;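 further: growth inhibition of the cancer cell line, determined with a cell viability readout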
Description: SANGER: Inhibition of human NCI-H2126 cell growth in a cell viability assay.

LS-123 = type: functional, cell-based
Description: SANGER: Inhibition of human LS-123 cell growth in a cell viability assay.

MZ2-MEL = type: functional, cell-based;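 further: growth inhibition of MZ2-MEL cells read out with a cell viability assay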
Description: SANGER: Inhibition of human MZ2-MEL cell growth in a cell viability assay.

ACN = type: functional, cell-based;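 further: growth inhibition of the human ACN cell line, read out via cell viability testing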
Description: SANGER: Inhibition of human ACN cell growth in a cell viability assay.

DoTc2-4510 = type: functional, cell-based
IGROV-1 = type: functional, cell-based;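 further: reduction of IGROV-1 cell growth, read out with a viability assay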
Description: SANGER: Inhibition of human IGROV-1 cell growth in a cell viability assay.

A-431 = type: functional, cell-based;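 further: growth inhibition of A-431 cells, determined with a cell viability read-out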
Description: SANGER: Inhibition of human A431 cell growth in a cell viability assay.

DJM-1 = type: functional, cell-based;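 further: growth inhibition of human DJM-1 cells, read out by a cell viability assay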
Description: SANGER: Inhibition of human DJM-1 cell growth in a cell viability assay.

RPMI-2650 = type: functional, cell-based
Description: SANGER: Inhibition of human RPMI-2650 cell growth in a cell viability assay.

NB69 = type: functional, cell-based;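 further: growth inhibition of NB69 cells, determined by a cell viability assay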
Description: SANGER: Inhibition of human NB69 cell growth in a cell viability assay.

GB-1 = type: functional, cell-based;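 further: growth of GB-1 cells judged by a viability assay, IC50 marks the concentration inhibiting growth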
Description: SANGER: Inhibition of human GB-1 cell growth in a cell viability assay.

KY821 = type: functional, cell-based;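 further: growth inhibition of human KY821 cells, read out by a cell viability assay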
Description: SANGER: Inhibition of human KY821 cell growth in a cell viability assay.

NCI-H1299 = type: functional, cell-based;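 further: growth inhibition of human NCI-H1299 cells, read out by a cell viability assay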
Description: SANGER: Inhibition of human NCI-H1299 cell growth in a cell viability assay.

Becker = type: functional, cell-based;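 further: growth inhibition of Becker cells, read out with a cell viability assay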
Description: SANGER: Inhibition of human Becker cell growth in a cell viability assay.

MV4-11 = type: functional, cell-based, MV-4-11;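 further: cell viability readout measuring growth inhibition of human MV-4-11 cells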
Description: SANGER: Inhibition of human MV-4-11 cell growth in a cell viability assay.

KM12 = type: functional, cell-based
Description: SANGER: Inhibition of human KM12 cell growth in a cell viability assay.

RS4-11 = type: functional, cell-based
Description: SANGER: Inhibition of human RS4-11 cell growth in a cell viability assay.

Cn1c(=O)n(-c2ccc(C(C)(C)C#N)cc2)c2c3cc(-c4cnc5ccccc5c4)ccc3ncc21 [DACTOLISIB]
IC50 (TGBC24TKB): 222 nM
IC50 (COLO-829): 296 nM
IC50 (NCI-H1581): 64 nM
IC50 (IST-SL1): 1440 nM
IC50 (EW-18): 31.9 nM
IC50 (A204): 28.5 nM
IC50 (NCI-H1395): 199 nM
IC50 (JAR): 956 nM
IC50 (ALL-PO): 416 nM
IC50 (MEG-01): 63.5 nM
IC50 (L-363): 10.7 nM
IC50 (CW-2): 270 nM
IC50 (BCPAP): 18.7 nM
IC50 (MOLT-16): 17.2 nM
IC50 (A4-Fuk): 46.5 nM
IC50 (HH): 15.7 nM
IC50 (NCI-H1651): 344 nM
IC50 (BB65-RCC): 12.7 nM
IC50 (BB49-HNC): 174 nM
IC50 (LS-411N): 187 nM
IC50 (NB13): 118 nM
IC50 (NKM-1): 54.8 nM
IC50 (MIA PaCa-2): 84.5 nM
IC50 (SW982): 49.9 nM
IC50 (LB2241-RCC): 14 nM
IC50 (COLO-320-HSR): 403 nM
IC50 (NCI-H526): 824 nM
IC50 (GI-ME-N): 29.9 nM
IC50 (BV-173): 23.9 nM
IC50 (ES4): 21.1 nM
IC50 (U-266): 206 nM
IC50 (GT3TKB): 118 nM
IC50 (LU-134-A): 79 nM
IC50 (RXF 393): 21.4 nM
IC50 (VA-ES-BJ): 17.8 nM
IC50 (P30-OHK): 83.5 nM
IC50 (HL-60): 123 nM
IC50 (DEL): 20.5 nM
IC50 (MOLT-4): 25.1 nM
IC50 (NCI-H720): 3.57 nM
IC50 (LB831-BLC): 121 nM
IC50 (EM-2): 54.4 nM
IC50 (NCI-H2126): 148 nM
IC50 (LS-123): 92.2 nM
IC50 (MZ2-MEL): 39.7 nM
IC50 (ACN): 81.8 nM
IC50 (DoTc2-4510): 1070 nM
IC50 (IGROV-1): 136 nM
IC50 (A-431): 90 nM
IC50 (DJM-1): 340 nM
IC50 (RPMI-2650): 52.7 nM
IC50 (NB69): 22.5 nM
IC50 (GB-1): 54.2 nM
IC50 (KY821): 56.2 nM
IC50 (NCI-H1299): 150 nM
IC50 (Becker): 34.2 nM
IC50 (MV4-11): 28.7 nM
IC50 (KM12): 236 nM
IC50 (RS4-11): 26.9 nM

CC(=O)c1c(C)c2cnc(Nc3ccc(N4CCNCC4)cn3)nc2n(C2CCCC2)c1=O [PALBOCICLIB]
IC50 (TGBC24TKB): > 4000 nM
IC50 (NCI-H1581): > 4000 nM
IC50 (IST-SL1): > 4000 nM
IC50 (EW-18): > 4000 nM
IC50 (A204): 634 nM
IC50 (NCI-H1395): > 4000 nM
IC50 (JAR): > 4000 nM
IC50 (ALL-PO): > 4000 nM
IC50 (MEG-01): > 4000 nM
IC50 (L-363): 1870 nM
IC50 (CW-2): > 4000 nM
IC50 (BCPAP): 1660 nM
IC50 (MOLT-16): 258 nM
IC50 (A4-Fuk): > 4000 nM
IC50 (HH): 599 nM
IC50 (NCI-H1651): > 4000 nM
IC50 (BB65-RCC): 1510 nM
IC50 (BB49-HNC): > 4000 nM
IC50 (LS-411N): > 4000 nM
IC50 (NB13): > 4000 nM
IC50 (NKM-1): 412 nM
IC50 (MIA PaCa-2): 2360 nM
IC50 (SW982): > 4000 nM
IC50 (LB2241-RCC): 1190 nM
IC50 (COLO-320-HSR): > 4000 nM
IC50 (NCI-H526): > 4000 nM
IC50 (GI-ME-N): > 4000 nM
IC50 (BV-173): 652 nM
IC50 (ES4): 2450 nM
IC50 (U-266): > 4000 nM
IC50 (GT3TKB): 2590 nM
IC50 (LU-134-A): > 4000 nM
IC50 (RXF 393): 813 nM
IC50 (VA-ES-BJ): 732 nM
IC50 (P30-OHK): > 4000 nM
IC50 (HL-60): 341 nM
IC50 (DEL): 1700 nM
IC50 (MOLT-4): 345 nM
IC50 (NCI-H720): > 4000 nM
IC50 (LB831-BLC): > 4000 nM
IC50 (EM-2): 651 nM
IC50 (LS-123): > 4000 nM
IC50 (MZ2-MEL): 1800 nM
IC50 (ACN): > 4000 nM
IC50 (DoTc2-4510): > 4000 nM
IC50 (IGROV-1): > 4000 nM
IC50 (A-431): > 4000 nM
IC50 (DJM-1): > 4000 nM
IC50 (RPMI-2650): > 4000 nM
IC50 (NB69): 162 nM
IC50 (GB-1): > 4000 nM
IC50 (KY821): 314 nM
IC50 (NCI-H1299): 3050 nM
IC50 (Becker): 2960 nM
IC50 (MV4-11): 514 nM
IC50 (KM12): 1820 nM
IC50 (RS4-11): 505 nM

Source: ChEMBL document CHEMBL1201861, “Genomics of Drug Sensitity in Cancer screening data, Wellcome Trust Sanger Institute”
